Experimental data taken from US9757375B2, “Compounds that inhibit human DNA ligases and methods of treating cancer” (University of Maryland, Baltimore, priority 2007, dated 2017).
“Also recorded” adds a separate entry of the source. Like-named read-outs stand apart in the source and are kept apart here.

Legend:
[1] = tested on: MCF7, HCT116, HeLa, and MCF10A cells; test: Survival assay on cell panel (FIG. 9); format: cell-based, human; settings: Homo sapiens; cell line not stated
Text: FIG. 9. […] A, effect of L67 (left) and L189 (right) on the survival of MCF7 (Δ), HCT116 (□), HeLa (⋄), and MCF10A (upsidedown triangle) cells. B, normal breast epithelial MCF10A cells (open symbols) and breast cancer MCF7 cells (filled symbols) in the absence (circles) or presence of 3 μmol/L of L67 (squares) were exposed to increasing concentrations of MMS (left). Normal breast epithelial MCF10A cells (open symbols) and colon cancer HCT116 cells (filled symbols) in the absence (circles) or presence of 20 μmol/L of L189 (squares) were exposed to increasing doses of ionizing radiation (right). C, hLigI (I), hLigIIIα (III), and hLigIV (IV) were detected in extracts (400 μg) of the indicated cell lines by immunoblotting. To control for extract loading β-actin was also detected by immunoblotting.
For survival assays, cells were plated in 6 well plates and grown either in the absence or presence of ligase inhibitors. Where indicated, either MMS (0-50 μM) was added to the medium or the cells were irradiated in a Cs-137 irradiator (0-2.5 Gy). After two weeks, colonies were stained with crystal violet (Sigma) and then counted.

hLigIV/XRCC4 = hLigIV/XRCC4 (Homo sapiens, UniProt P49917); test: Radioactive gel-based DNA ligation assay; format: biochemical; set-up: concentration or dose not given beside the values
Sequence of hLigIV/XRCC4 (P49917 whole entry): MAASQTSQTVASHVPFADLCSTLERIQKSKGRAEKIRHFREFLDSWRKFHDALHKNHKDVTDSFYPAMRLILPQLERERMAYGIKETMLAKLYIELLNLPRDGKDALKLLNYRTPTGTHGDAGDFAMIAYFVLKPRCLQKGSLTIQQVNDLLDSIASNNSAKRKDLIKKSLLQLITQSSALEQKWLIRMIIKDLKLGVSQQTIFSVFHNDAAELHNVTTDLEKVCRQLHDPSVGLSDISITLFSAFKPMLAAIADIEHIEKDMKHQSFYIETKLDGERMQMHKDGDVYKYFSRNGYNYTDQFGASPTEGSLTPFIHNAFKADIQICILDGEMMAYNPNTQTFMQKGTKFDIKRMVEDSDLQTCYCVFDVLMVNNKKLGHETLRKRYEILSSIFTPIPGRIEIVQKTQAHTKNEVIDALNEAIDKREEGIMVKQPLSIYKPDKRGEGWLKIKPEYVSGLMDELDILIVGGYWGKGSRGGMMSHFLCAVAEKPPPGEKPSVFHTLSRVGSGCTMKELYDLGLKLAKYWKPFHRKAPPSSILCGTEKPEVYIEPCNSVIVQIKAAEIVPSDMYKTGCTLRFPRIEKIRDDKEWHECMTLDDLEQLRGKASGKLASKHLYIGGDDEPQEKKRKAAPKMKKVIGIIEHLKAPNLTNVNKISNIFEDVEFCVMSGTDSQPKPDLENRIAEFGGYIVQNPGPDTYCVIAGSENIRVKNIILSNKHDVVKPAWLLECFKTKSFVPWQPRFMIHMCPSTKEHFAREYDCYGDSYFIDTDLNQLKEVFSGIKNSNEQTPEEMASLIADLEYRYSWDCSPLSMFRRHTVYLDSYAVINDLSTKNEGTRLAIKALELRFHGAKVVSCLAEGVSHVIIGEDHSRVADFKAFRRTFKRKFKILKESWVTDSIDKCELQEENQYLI
Sequence of hLigIV/XRCC4 (Q13426 whole entry partner): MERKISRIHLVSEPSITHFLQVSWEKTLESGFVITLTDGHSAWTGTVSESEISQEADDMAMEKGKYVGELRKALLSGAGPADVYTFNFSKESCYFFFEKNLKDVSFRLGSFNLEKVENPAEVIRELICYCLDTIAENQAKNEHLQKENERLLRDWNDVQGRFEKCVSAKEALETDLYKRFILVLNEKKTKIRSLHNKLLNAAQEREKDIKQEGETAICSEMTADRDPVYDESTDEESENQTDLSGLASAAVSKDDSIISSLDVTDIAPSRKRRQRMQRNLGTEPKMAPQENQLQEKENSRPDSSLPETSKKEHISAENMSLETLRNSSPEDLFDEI

hLigI = molecular target: T1, hLigI (Homo sapiens, UniProt P18858); test: High-throughput fluorescence-based DNA joining (ligation) assay; format: biochemical; settings: for inhibition of hLigI (DNA ligase I), in words: in vitro screen, 100 μmol/L, the 15 hLigI inhibitors inhibited by >50%
T1 construct: made in house
T1 sequence (P18858 whole entry): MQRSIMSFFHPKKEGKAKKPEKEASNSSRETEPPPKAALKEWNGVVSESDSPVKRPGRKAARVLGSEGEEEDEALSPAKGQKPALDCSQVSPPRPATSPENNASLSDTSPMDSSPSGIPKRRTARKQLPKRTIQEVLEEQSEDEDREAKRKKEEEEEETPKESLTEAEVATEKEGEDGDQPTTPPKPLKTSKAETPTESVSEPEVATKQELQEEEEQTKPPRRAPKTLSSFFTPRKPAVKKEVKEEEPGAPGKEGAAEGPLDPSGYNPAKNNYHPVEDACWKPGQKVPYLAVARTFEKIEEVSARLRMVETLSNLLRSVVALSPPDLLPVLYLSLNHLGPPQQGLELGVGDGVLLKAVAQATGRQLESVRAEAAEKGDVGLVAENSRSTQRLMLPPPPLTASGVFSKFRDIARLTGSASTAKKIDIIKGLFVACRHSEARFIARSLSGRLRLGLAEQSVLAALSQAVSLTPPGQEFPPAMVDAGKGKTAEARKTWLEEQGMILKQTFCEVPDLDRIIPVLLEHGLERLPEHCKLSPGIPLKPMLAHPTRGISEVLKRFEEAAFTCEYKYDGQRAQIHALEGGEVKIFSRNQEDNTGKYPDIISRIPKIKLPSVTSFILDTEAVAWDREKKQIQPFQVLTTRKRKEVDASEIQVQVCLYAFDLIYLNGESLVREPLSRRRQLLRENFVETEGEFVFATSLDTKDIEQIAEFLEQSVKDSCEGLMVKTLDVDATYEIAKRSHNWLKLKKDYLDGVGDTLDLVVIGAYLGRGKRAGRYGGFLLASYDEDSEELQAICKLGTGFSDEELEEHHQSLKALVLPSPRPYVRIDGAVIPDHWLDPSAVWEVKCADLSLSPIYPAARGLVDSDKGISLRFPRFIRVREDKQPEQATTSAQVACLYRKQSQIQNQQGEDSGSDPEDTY
Summary of the method: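 Nicked DNA substrate (10 pmol) was incubated with 0.25 pmol hLigI, with or without 100 μmol/L test compound, in duplicate. Afterwards the DNA was denatured and renatured with a 20-fold excess of unmodified oligonucleotide. Ligation forms an AF488/BHQ1 hairpin, read as reduced fluorescence at 518 nm.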

T4 DNA ligase = molecular target: T2, T4 DNA ligase (Enterobacteria phage T4, UniProt P00970); test: High-throughput fluorescence-based DNA joining assay, non-specific inhibitor control; format: biochemical, bacteriophage T4
T2 construct: purchased NEB
T2 sequence (P00970 1-487): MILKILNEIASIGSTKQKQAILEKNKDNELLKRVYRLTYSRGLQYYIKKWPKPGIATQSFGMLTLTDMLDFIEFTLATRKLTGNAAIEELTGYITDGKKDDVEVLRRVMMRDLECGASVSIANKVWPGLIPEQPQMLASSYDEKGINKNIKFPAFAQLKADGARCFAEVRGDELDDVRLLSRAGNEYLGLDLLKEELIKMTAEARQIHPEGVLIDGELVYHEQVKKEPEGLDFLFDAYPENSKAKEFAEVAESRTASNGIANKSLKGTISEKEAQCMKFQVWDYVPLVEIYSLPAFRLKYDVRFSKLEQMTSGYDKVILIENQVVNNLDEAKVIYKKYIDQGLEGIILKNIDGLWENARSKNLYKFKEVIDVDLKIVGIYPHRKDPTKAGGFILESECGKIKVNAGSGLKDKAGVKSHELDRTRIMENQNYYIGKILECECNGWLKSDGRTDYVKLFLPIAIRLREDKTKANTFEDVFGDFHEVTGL
Summary of the method: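 This counter-screen used a FRET-based DNA joining assay. Duplicate reactions held 10 pmol nicked DNA substrate and 10 units T4 DNA ligase, with or without 100 μmol/L compound. T4 ligase lacks the DNA-binding domain targeted in silico, so compounds inhibiting it were flagged as non-specific, likely DNA-binding.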

human DNA ligase IV = human DNA ligase IV (Homo sapiens, UniProt P49917); test: High-throughput fluorescence-based DNA joining (ligation) assay; format: biochemical; settings: for inhibition of human DNA ligase IV, in words: in vitro screen
Sequence of human DNA ligase IV (P49917 whole entry): as the sequence (P49917 whole entry) above
Sequence of human DNA ligase IV (Q13426 whole entry partner): as the sequence (Q13426 whole entry partner) above
Summary of the method: (§1)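 Ligation joins an AF488-labelled and a BHQ1-labelled oligonucleotide. After denaturation and renaturation with a 20-fold excess of unlabelled competitor strand, the product forms a quenched hairpin, so joining is read as loss of 518 nm fluorescence. Ligase III used a nicked duplex; ligase IV used two duplexes with short complementary single-strand ends.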

human DNA ligase III = molecular target: T3, human DNA ligase III (Homo sapiens, UniProt P49916); test: as above; format: biochemical; settings: for inhibition at 100 µM: read-out: In vitro % inhib hLigIII 100; for % activity Inhibition hLigIII 100 uM: Ø not defined (0 in Table 5A)
T3 sequence (P49916 1-862 isoform P49916-4): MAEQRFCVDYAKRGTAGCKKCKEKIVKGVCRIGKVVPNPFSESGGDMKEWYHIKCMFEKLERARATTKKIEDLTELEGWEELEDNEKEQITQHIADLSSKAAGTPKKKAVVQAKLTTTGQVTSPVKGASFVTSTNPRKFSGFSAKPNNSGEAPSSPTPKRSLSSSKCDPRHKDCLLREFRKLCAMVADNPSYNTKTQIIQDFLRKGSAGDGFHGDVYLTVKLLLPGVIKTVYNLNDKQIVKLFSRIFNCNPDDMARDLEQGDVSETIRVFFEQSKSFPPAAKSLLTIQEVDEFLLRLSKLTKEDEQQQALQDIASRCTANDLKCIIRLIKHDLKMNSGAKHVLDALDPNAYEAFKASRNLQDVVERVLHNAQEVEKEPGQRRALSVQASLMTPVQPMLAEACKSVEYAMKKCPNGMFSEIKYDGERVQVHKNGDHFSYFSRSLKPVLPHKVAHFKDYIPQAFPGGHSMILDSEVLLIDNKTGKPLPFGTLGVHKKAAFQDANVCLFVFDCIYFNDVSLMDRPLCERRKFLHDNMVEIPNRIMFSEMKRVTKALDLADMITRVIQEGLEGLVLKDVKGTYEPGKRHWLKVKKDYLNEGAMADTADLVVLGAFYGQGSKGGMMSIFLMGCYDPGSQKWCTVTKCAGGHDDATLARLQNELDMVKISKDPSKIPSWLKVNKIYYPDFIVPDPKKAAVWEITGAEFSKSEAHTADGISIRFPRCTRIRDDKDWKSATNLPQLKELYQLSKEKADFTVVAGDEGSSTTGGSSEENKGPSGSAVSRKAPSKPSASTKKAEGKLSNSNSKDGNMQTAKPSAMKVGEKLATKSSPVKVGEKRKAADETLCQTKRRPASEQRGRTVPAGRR
Summary of the method: as §1

hLigIIIβ = molecular target: T4, hLigIIIβ (Homo sapiens, UniProt P49916); test: Radioactive gel-based DNA ligation assay; format: biochemical; settings: grades ±, Ø (key not given)
T4 sequence (P49916 1-862 isoform P49916-4): T3 sequence (P49916 1-862 isoform P49916-4)

[2] = tested on: Human DNA ligases I, III and IV and T4 DNA ligase; test: Step 3 of the ligation reaction: ligation of preadenylated nick by non-adenylated ligase; format: biochemical; settings: 100 μM, FIG. 3C
Description: To analyze step 3 of the ligation reaction, an adenylated labeled version of the 18-mer was prepared as described (24). The DNA substrate containing a preadenylated nick (0.5 pmol) and hLigI (0.05 pmol), hLigIIIβ (0.05 pmol), hLigIV/XRCC4 (0.1 pmol), or T4 DNA ligase (0.05 pmol) were incubated in ligation buffer without ATP, either in the presence or absence of the ligase inhibitors (100 μmol/L). Reactions were stopped by the addition of an equal volume of gel loading dye (95% formamide, 0.05% bromophenol blue, and 0.05% xylene cyanol). After heating at 95° C. for 5 min, DNA was separated by denaturing polyacrylamide gel electrophoresis. Labeled oligonucleotides were detected and quantitated in the dried gel by phosphorImager analysis (Molecular Dynamics).
Since the final two steps of the ligation reaction involve interactions with DNA, we examined the effects of the ligase inhibitors on the second (FIG. 3B) (The labeled ligase-adenylate form of human DNA ligases I, III and IV and T4 DNA ligase were incubated with a linear DNA substrate containing a single non-ligatable nick in the absence or presence of compounds 67, 82 and 189 (100 μM). After separation by denaturing gel electrophoresis, the labeled DNA-AMP complex was detected by phosphorimaging (26)) and third steps (FIG. 3C) of the ligation reaction using established assays (25,26) (Non-adenylated human DNA ligases I, III and IV and T4 DNA ligase were incubated with labeled DNA-AMP in the absence or presence of compounds 67, 82 and 189 (100 μM). After separation by denaturing gel electrophoresis, labeled ligated DNA was detected by phosphorimaging (25)).

[3] = 100 μM, read-out: In vitro % inhib hLigI 100
[4] = 100 μM, read-out: In vitro % inhib T4 100
[5] = 100 μM, read-out: In vitro % inhib hLigIV 100
[6] = 100 uM, Ø not defined (0 in Table 5A), read-out: % activity Inhibition hLigIV 100 uM
[7] = 100 uM, Ø not defined (0 in Table 5A)

O=C(O)c1cnn2c(C(F)(F)F)cc(-c3ccco3)nc12 [Compound 215]
EC50 [1]: > 100 µM | % activity Inhibition hLigIV gel (hLigIV/XRCC4): 53% | % activity Inhibition hLigI 100 uM (hLigI; 100 uM): Ø | inhibition at 100 µM (hLigI; [3]): 0% | % activity Inhibition LigT4 100 uM (T4 DNA ligase): Ø | inhibition at 100 µM (T4 DNA ligase; [4]): 0% | inhibition at 100 µM (human DNA ligase IV; [5]): 61 ± 1% | inhibition at 100 µM (human DNA ligase IV; [6]): 60.7 ± 1.3% | inhibition of human DNA ligase IV, in words (human DNA ligase IV): specific for DNA ligase IV | inhibition at 100 µM (human DNA ligase III; 100 μM): 0% | % activity Inhibition hLigIII 100 uM (human DNA ligase III): Ø

CSc1ccc(C(=O)O)s1 [Compound 1]
inhibition at 100 µM (hLigI; 100 uM, read-out: % activity Inhibition hLigI 100 uM): 40.3 ± 8.6% | inhibition at 100 µM (hLigI; [3]): 40 ± 9% | inhibition of hLigI (DNA ligase I), in words (hLigI): specific for DNA ligase I | % activity Inhibition hLigIII gel (hLigIIIβ): Ø | inhibition at 100 µM (T4 DNA ligase; [4]): 0% | inhibition at 100 µM (T4 DNA ligase; read-out: % activity Inhibition LigT4 100 uM): 0% | inhibition at 100 µM (human DNA ligase IV; [5]): 0% | % activity Inhibition hLigIV 100 uM (human DNA ligase IV; [7]): Ø | inhibition at 100 µM (human DNA ligase III; 100 μM): 0% | % activity Inhibition hLigIII 100 uM (human DNA ligase III): Ø

NS(=O)(=O)c1ccc(CCNC(=O)CCS(=O)(=O)c2ccc(Br)cc2)cc1 [Compound 113]
% activity Inhibition hLigIV gel (hLigIV/XRCC4): 83% | % activity Inhibition hLigI 100 uM (hLigI; 100 uM): 53.4 ± 7.6% | In vitro % inhib hLigI 100 (μM) (hLigI; 100 μM): 53 ± 8% | hLigI_Inh % (100 μM) (hLigI; 100 μM, percentage of values obtained with DMSO alone): 53.4 ± 7.6% | inhibition of hLigI (DNA ligase I), in words (hLigI): inhibited hLigI; also recorded: specifically inhibits both DNA ligases I and IV | % activity Inhibition hLigIII gel (hLigIIIβ): Ø | % activity Inhibition LigT4 100 uM (T4 DNA ligase): 5.4 ± 4.5% | In vitro % inhib T4 100 (μM) (T4 DNA ligase; 100 μM): 5 ± 5% | In vitro % inhib hLigIV 100 (μM) (human DNA ligase IV; 100 μM): 83 ± 5% | % activity Inhibition hLigIV 100 uM (human DNA ligase IV; [7]): >50% | inhibition of human DNA ligase IV, in words (human DNA ligase IV): specifically inhibits both DNA ligases I and IV | In vitro % inhib hLigIII 100 (μM) (human DNA ligase III; 100 μM): 0% | % activity Inhibition hLigIII 100 uM (human DNA ligase III): Ø

O=C(O)Cc1cncc(Br)c1 [Compound 122]
EC50 [1]: > 100 µM | % activity Inhibition hLigIV gel (hLigIV/XRCC4): 50% | % activity Inhibition hLigI 100 uM (hLigI; 100 uM): Ø | inhibition at 100 µM (hLigI; [3]): 0% | % activity Inhibition LigT4 100 uM (T4 DNA ligase): Ø | inhibition at 100 µM (T4 DNA ligase; [4]): 0% | inhibition at 100 µM (human DNA ligase IV; [5]): 50 ± 5% | inhibition at 100 µM (human DNA ligase IV; [6]): 16.1 ± 19.1% | inhibition of human DNA ligase IV, in words (human DNA ligase IV): specific for DNA ligase IV | inhibition at 100 µM (human DNA ligase III; 100 μM): 0% | % activity Inhibition hLigIII 100 uM (human DNA ligase III): Ø

O=C(O)CN1C(=O)C(=O)c2ccccc21 [Compound 76]
inhibition of step 3 of the ligation reaction [2]: inhibit step 3
